In US7604939B2, “Methods of identifying active BRM expression-promoting HDAC inhibitors” (The Regents of the University of Michigan, priority 2005, dated 2009):
Where two headings read alike, the source gives them in different places. Where a SMILES comes first, the peptide text is derived from it. [ ]: non-standard residue; d: D form. Aoe = N[C@@H](CCCCCC(=O)[C@@H]1CO1)C(=O)O

Legend:
p16 expression = p16 expression by semi-quantitative RT-PCR in control cell lines; assay type: cell-based, human; conditions: 5uM on three consecutive days; H23 and H441 cell lines
HDAC4 = HDAC4 (Homo sapiens, UniProt P56524); conditions: Class 2 HDAC; cited from earlier work
HDAC3 = HDAC3 (Homo sapiens, UniProt O15379); conditions: cited from earlier work; for IC50: read-out: IC50 HDAC3
HDAC6 = target: T1, HDAC6 (Homo sapiens, UniProt Q9UBN7); conditions: Class 2 HDAC; cited from earlier work
T1 sequence (Q9UBN7 1-1215): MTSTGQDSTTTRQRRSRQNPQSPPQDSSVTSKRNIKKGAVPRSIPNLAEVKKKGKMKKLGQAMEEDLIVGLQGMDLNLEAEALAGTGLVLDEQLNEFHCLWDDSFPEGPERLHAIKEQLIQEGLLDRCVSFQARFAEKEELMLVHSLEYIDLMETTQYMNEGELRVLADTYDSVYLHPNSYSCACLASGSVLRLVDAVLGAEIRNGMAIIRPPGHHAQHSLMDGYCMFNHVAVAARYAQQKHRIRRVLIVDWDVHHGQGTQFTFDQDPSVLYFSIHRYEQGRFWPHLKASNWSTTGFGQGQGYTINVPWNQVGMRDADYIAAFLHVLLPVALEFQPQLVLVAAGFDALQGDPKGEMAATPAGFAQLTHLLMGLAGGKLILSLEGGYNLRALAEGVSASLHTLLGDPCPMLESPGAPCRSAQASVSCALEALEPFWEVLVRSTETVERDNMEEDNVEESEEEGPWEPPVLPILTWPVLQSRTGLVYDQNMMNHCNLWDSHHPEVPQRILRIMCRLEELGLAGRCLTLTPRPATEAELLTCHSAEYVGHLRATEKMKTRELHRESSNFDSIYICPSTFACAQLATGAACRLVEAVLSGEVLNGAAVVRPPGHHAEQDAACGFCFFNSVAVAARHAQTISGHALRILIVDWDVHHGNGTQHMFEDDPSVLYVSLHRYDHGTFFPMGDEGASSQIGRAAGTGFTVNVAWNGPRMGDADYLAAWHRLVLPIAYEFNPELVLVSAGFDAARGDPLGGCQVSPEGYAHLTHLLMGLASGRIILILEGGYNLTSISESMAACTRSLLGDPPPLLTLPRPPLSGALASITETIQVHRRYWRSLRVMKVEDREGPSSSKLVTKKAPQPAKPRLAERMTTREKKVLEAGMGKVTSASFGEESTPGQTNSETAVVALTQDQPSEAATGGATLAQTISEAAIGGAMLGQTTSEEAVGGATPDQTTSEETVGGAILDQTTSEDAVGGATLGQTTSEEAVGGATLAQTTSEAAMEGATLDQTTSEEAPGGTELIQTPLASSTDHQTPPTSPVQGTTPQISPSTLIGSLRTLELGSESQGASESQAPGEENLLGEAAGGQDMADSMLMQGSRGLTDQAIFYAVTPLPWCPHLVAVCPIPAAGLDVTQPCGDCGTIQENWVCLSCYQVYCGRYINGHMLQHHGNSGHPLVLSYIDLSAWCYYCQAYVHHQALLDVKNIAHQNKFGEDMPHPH

HDAC1 = HDAC1 (Homo sapiens, UniProt Q13547); conditions: cited from earlier work; for Sensitivity of HDAC1 to the inhibitor: Class 1 HDAC
H23 and SW13 cell lines = experiment: Toxicity to BRG1/BRM-deficient cell lines; assay type: cell-based, human; conditions: most pronounced in the H23 and SW13 cell lines
HDAC10 = target: T2, HDAC10 (Homo sapiens, UniProt Q969S8); conditions: Class 2 HDAC; cited from earlier work
T2 sequence (Q969S8 1-669): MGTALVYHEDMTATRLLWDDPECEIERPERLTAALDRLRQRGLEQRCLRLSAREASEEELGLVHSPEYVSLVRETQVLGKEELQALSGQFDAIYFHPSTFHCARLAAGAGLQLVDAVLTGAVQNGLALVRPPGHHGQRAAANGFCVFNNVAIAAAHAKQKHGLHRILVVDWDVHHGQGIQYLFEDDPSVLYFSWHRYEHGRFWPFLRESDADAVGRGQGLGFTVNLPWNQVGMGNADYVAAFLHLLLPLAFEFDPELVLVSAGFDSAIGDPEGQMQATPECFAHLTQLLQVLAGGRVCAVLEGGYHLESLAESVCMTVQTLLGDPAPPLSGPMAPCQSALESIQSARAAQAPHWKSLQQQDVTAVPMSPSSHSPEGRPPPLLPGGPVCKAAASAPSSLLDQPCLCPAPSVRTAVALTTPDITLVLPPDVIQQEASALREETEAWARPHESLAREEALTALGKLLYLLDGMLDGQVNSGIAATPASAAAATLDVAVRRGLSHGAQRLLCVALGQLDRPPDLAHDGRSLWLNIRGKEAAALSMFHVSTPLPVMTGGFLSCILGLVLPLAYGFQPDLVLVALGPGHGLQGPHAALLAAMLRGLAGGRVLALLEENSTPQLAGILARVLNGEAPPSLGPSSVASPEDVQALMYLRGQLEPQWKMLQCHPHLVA

HDAC8 = target: T3, HDAC8 (Homo sapiens, UniProt Q9BY41); conditions: Class 1 HDAC; cited from earlier work
T3 sequence (Q9BY41 1-377): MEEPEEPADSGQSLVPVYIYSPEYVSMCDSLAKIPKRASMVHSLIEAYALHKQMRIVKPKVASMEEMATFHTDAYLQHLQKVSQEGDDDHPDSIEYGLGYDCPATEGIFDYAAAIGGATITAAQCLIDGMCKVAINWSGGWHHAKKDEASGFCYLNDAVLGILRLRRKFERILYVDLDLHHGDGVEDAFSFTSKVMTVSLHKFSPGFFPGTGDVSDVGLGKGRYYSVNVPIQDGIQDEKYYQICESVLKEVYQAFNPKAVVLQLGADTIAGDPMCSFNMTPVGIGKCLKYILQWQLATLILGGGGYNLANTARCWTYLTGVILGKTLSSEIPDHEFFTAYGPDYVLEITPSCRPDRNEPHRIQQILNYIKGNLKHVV

Class 3 HDACs = conditions: cited from earlier work
HDAC5 = HDAC5 (Homo sapiens, UniProt Q9UQL6); conditions: Class 2 HDAC; cited from earlier work
HDAC9 = HDAC9 (Homo sapiens, UniProt Q9UKV0); conditions: Class 2 HDAC; cited from earlier work
HDAC2 = HDAC2 (Homo sapiens, UniProt Q92769); conditions: Class 1 HDAC; cited from earlier work
BRM expression [1] = experiment: Time course of BRM expression in SW13 cells with butyrate and after its removal; assay type: cell-based, human
Method: Cells were treated daily with sodium butyrate (5 mM). Total protein was extracted at 4, 12, 24, 36, […], and 72 hours after the first dosage. Upregulation of BRM with butyrate treatment was detected after 12 hours and reached a plateau between 24 and 48 hours. GAPDH was the loading control. […] Cells were treated with sodium butyrate at a final concentration of 5 mM for three consecutive days. On the fourth day, the medium was changed and cells were harvested at various time points for protein detection. BRM protein levels declined and returned to baseline after 4-5 days. (NaBut=sodium butyrate, un=untreated).
This Example describes an analysis of the temporal effects of HDAC inhibitors on BRM re-expression. In partciular, to understand how HDAC inhibitors affected BRM expression, the time course at which BRM expression in SW13 cells was induced by continued exposure to butyrate was determined. The upregulation of BRM expression was detected by western blot analysis at 12 hours and reached a plateau at 24 hours. Little change in BRM expression occurred with continued treatment for an additional 48 hours (FIG. 3A). This process was reversible, as BRM expression returned to pretreatment levels after removal of sodium butyrate. To further characterize this effect, SW13 cells were treated with butyrate for 72 hours, sodium butyrate was removed, and BRM levels were measured by western blotting from 0 to 6 days. The BRM protein levels remained elevated for 72 hours and returned to near baseline levels at 96 hours (FIG. 3B). In parallel with BRM protein, the BRM mRNA level determined by quantative RT-PCR, also remained elevated for 3 days, returning to baseline level by 4 days. These findings indicate the changes in BRM protein levels paralleled the changes in the BRM mRNA levels.

BRM expression [2] = experiment: BRM mRNA (RT-PCR) and protein (western blotting) expression in BRG1/BRM-deficient cell lines after treatment
Description: This example describes the treatment of cells lines with undetectable BRG1 and BRM protein expression with various HDAC inhibitors or 5-aza-deoxycytidine (5-azaCdR). […] This upregulation effect was also examined in the six other BRG1/BRM-deficient cell lines, using RT-PCR.

[3] = SW13, continued exposure, 5 mM daily (FIG. 3A)
[4] = SW13, treated 72 hours, then removed
[5] = SW13, treated 72 hours, then removed (FIG. 3B)

HDAC3, sequence (O15379 whole entry): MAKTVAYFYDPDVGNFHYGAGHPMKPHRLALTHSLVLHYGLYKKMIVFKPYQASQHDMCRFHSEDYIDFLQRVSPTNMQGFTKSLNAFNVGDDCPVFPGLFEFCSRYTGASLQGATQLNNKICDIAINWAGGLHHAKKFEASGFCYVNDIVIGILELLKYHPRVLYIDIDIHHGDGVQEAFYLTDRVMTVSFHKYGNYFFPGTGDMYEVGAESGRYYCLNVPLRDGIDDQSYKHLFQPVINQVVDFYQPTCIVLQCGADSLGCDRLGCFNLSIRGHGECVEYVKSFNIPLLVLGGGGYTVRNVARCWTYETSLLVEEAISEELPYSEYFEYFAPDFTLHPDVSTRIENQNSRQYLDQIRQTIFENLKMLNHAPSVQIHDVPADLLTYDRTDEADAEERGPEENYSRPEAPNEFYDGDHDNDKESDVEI
HDAC3, sequence (Q9Y618 395-489 partner limits assumed): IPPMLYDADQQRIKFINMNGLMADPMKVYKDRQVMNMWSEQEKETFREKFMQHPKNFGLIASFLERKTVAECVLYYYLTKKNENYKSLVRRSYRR
HDAC1, sequence (Q13547 whole entry): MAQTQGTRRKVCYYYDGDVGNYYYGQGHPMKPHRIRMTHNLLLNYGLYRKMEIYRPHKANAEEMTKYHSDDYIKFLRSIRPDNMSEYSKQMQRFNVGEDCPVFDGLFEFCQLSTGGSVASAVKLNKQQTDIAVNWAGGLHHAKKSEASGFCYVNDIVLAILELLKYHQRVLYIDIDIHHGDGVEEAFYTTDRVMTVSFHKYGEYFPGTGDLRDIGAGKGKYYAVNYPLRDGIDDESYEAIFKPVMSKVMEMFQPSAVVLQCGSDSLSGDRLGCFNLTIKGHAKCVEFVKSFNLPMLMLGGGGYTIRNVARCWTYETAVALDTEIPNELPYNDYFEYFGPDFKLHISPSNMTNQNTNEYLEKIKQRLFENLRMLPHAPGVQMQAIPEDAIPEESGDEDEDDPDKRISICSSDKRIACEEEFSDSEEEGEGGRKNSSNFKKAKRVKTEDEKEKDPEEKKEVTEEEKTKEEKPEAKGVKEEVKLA
HDAC4, sequence (P56524 whole entry): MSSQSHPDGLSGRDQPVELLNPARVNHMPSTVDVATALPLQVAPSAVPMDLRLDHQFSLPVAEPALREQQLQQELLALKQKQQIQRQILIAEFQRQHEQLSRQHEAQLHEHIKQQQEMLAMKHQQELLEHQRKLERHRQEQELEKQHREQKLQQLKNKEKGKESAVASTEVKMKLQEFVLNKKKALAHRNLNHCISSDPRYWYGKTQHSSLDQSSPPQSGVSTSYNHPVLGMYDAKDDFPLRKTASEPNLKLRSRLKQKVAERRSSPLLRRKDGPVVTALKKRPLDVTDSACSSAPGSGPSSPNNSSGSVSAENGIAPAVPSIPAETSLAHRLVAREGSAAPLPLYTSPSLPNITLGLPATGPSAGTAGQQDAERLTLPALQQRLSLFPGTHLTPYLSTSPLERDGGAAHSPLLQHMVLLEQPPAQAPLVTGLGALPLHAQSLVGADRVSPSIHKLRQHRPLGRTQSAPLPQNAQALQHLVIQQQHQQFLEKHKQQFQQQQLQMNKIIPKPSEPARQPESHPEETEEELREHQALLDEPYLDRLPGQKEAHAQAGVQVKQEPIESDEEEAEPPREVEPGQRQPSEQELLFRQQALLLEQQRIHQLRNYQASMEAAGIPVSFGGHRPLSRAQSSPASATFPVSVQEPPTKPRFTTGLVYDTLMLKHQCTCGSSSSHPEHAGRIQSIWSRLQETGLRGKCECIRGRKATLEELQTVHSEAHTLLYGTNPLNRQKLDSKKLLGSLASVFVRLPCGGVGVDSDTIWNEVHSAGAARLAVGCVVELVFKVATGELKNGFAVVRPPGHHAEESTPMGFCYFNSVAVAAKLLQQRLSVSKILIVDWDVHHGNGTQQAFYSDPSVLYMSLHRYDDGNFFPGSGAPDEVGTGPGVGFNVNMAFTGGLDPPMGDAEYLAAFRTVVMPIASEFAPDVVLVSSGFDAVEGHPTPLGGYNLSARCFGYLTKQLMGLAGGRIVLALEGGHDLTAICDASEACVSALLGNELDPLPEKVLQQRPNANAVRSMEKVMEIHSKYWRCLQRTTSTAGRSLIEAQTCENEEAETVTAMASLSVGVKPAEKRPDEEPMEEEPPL
HDAC2, sequence (Q92769 whole entry): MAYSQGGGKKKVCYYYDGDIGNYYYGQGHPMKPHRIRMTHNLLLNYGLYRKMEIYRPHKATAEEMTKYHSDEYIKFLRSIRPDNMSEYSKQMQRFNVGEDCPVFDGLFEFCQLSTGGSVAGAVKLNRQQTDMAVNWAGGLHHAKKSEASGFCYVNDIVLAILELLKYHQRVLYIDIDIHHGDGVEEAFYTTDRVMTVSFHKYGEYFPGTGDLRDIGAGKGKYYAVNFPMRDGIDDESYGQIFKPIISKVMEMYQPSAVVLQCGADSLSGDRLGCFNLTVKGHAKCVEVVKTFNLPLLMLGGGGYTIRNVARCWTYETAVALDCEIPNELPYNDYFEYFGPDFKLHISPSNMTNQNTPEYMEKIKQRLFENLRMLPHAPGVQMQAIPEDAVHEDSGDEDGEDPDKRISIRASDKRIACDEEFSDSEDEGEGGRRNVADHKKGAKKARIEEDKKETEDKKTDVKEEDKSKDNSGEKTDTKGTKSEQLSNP
HDAC9, sequence (Q9UKV0 whole entry): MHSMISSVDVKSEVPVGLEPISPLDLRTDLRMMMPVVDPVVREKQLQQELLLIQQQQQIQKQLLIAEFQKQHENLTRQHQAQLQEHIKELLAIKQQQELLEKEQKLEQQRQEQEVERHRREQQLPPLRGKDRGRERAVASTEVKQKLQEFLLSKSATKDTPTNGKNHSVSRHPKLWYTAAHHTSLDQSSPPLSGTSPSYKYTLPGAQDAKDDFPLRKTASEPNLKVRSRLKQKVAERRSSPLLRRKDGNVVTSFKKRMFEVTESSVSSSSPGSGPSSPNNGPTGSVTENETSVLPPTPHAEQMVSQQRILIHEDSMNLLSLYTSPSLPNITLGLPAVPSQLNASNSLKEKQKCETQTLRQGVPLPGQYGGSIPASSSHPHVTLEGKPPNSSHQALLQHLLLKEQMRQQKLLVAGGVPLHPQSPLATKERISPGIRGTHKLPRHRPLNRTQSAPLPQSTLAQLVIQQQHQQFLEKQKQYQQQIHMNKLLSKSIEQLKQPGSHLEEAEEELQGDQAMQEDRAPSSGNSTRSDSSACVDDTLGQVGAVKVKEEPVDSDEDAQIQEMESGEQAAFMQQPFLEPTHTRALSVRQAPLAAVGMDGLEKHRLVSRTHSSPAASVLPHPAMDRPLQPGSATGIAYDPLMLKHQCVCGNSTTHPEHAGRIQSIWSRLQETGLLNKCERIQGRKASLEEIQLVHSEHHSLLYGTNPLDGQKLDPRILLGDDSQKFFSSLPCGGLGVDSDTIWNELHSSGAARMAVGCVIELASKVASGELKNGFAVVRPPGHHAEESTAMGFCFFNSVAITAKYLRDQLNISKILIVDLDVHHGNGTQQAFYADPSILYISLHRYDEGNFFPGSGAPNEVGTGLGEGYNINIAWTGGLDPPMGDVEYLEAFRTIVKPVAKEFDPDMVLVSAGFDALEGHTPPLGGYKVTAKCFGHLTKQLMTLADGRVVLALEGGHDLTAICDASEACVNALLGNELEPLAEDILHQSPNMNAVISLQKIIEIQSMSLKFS
HDAC5, sequence (Q9UQL6 whole entry): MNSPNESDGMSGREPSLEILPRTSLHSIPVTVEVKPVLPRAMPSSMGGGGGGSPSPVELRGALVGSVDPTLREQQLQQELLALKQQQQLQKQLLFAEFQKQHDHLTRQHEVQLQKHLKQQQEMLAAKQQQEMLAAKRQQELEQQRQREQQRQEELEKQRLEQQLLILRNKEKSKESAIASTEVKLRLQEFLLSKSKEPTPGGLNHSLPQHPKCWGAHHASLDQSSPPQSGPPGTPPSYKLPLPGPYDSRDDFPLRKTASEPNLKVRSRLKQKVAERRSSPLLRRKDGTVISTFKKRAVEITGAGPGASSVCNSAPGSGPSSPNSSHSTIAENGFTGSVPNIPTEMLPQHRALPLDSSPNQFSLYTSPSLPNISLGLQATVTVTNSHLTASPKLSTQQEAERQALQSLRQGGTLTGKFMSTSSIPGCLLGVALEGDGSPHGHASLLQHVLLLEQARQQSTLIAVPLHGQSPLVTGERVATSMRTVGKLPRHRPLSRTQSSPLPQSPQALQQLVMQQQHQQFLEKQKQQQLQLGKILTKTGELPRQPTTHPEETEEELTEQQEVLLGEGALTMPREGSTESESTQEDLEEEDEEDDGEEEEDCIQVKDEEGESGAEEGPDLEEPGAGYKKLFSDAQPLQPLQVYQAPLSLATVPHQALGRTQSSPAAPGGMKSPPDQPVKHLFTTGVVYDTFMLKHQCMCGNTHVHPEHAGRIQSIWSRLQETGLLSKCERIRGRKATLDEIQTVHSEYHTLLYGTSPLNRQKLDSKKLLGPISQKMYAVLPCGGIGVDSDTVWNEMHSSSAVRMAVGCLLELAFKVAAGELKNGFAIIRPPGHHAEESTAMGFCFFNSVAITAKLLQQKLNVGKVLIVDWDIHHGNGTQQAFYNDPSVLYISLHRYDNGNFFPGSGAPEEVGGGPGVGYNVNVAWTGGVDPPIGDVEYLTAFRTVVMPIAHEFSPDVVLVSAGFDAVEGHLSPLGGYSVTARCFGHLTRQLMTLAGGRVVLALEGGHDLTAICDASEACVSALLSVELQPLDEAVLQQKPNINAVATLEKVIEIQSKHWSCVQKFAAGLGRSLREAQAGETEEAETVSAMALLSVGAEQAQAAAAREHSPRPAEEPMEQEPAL

## Nc1ncn([C@H]2C[C@H](O)[C@@H](CO)O2)c(=O)n1 [5azaCytD, 5-aza-deoxycytidine]
p16 expression
  Silencing of p16, semi-quantitative RT-PCR: reversed

## C/C=C1\NC(=O)[C@H]2CSSCC/C=C/[C@H](CC(=O)N[C@H](C(C)C)C(=O)N2)OC(=O)[C@H](C(C)C)NC1=O [FR901228]
HDAC4
  Sensitivity of HDAC4 to the inhibitor: weak
HDAC3; Class 1 HDAC
  Sensitivity of HDAC3 to the inhibitor: Yes
HDAC6
  Sensitivity of HDAC6 to the inhibitor: weak
HDAC1
  Sensitivity of HDAC1 to the inhibitor: Yes

## Nc1ccccc1NC(=O)c1ccc(CNC(=O)OCc2cccnc2)cc1 [MS-275]
H23 and SW13 cell lines
  Toxicity to cell lines compared to butyrate: increased toxicity

## O=C1N[C@@H](Cc2ccccc2)C(=O)N2CCC[C@@H]2C(=O)N[C@@H](CCCCCC(=O)[C@@H]2CO2)C(=O)N[C@H]1Cc1ccccc1 [Trapoxin] (cyclo(FF[dP][Aoe]))
HDAC10
  Sensitivity of HDAC10 to the inhibitor: No
HDAC3; Class 1 HDAC
  Sensitivity of HDAC3 to the inhibitor: Yes
HDAC3
  IC50: ~0.1 µM
HDAC6
  Sensitivity of HDAC6 to the inhibitor: No

## CC(/C=C/C(=O)NO)=C\[C@@H](C)C(=O)c1ccc(N(C)C)cc1 [Trichostatin A, trichostatin A]
HDAC4
  Sensitivity of HDAC4 to the inhibitor: Yes
HDAC8
  Sensitivity of HDAC8 to the inhibitor: Yes
HDAC10
  Sensitivity of HDAC10 to the inhibitor: Yes
Class 3 HDACs
  Sensitivity of Class 3 HDACs to the inhibitor: Resistance
HDAC5
  Sensitivity of HDAC5 to the inhibitor: Yes
HDAC9
  Sensitivity of HDAC9 to the inhibitor: Yes
HDAC6
  Sensitivity of HDAC6 to the inhibitor: Yes
HDAC1
  Sensitivity of HDAC1 to the inhibitor: Yes

## CCCC(CCC)C(=O)O [Valpoic Acid, valproic acid]
HDAC2
  Sensitivity of HDAC2 to the inhibitor: yes
HDAC1
  Sensitivity of HDAC1 to the inhibitor: yes

## CCCC(=O)[O-].[Na+] [sodium butyrate]
HDAC8
  Sensitivity of HDAC8 to the inhibitor: Yes
HDAC10
  Sensitivity of HDAC10 to the inhibitor: No
Class 3 HDACs
  Sensitivity of Class 3 HDACs to the inhibitor: Resistance
HDAC3
  Sensitivity of HDAC3 to the inhibitor: Yes
  IC50: ~300 µM
BRM expression [1]; 5 mM for three consecutive days, medium changed on fourth day (FIG. 3B)
  Time at which BRM protein levels returned to baseline after medium change: 4 to 5 days
BRM expression [1]; SW13, after plateau (FIG. 3A)
  Change in BRM expression with continued treatment for an additional 48 hours: Little change
BRM expression [1]; [3]
  Time at which BRM protein expression reached a plateau, western blot: 24 h
  Time at which upregulation of BRM protein was detected, western blot: 12 h
BRM expression [1]; [4]
  Time BRM mRNA level remained elevated after removal, quantitative RT-PCR: 3 days
  Time at which BRM mRNA returned to baseline after removal, quantitative RT-PCR: ≤ 4 days
BRM expression [1]; [5]
  Time BRM protein levels remained elevated after removal: 72 h
  Time at which BRM protein returned to near baseline after removal: 96 h
BRM expression [2]; Panc-1 and H513 cell lines, butyrate treatment
  Induction of BRM, RT-PCR: failed to demonstrate an appreciable induction
BRM expression [2]; after butyrate treatment, of ten cell lines
  Number of the ten BRG1/BRM-deficient cell lines showing BRM transcript re-expression, RT-PCR: eight
BRM expression [2]; butyrate treatment, responding BRG1/BRM-deficient cell lines
  Upregulation of BRM, cyber-green quantitation PCR: 8-20 fold
HDAC6
  Sensitivity of HDAC6 to the inhibitor: No
HDAC1
  Sensitivity of HDAC1 to the inhibitor: Yes
  IC50: ~300 µM
